Legend:
[1] = test system: patients with mild or mild/moderate AD; assay: LMTM Phase 3 exposure groups against historical placebo meta-analysis; assay type: in vivo, human; details: 8mg/day
healthy volunteers [2] = test system: healthy volunteers
healthy volunteers [3] = assay: Brain spectroscopy after NR supplementation; assay type: in vivo, human; details: two weeks of NR supplementation
AD and PD patients = assay: Posiphen phase 2a studies in AD and PD; assay type: in vivo, human
[4] = test system: patients with agitation in Alzheimer’s dementia; assay: Brexpiprazole phase 3 pooled CGI-S and CMAI responder analysis; assay type: in vivo, human
[5] = test system: patients with agitation in Alzheimer’s dementia; assay: Brexpiprazole phase 3 studies, post-hoc CMAI-IPA; assay type: in vivo, human
PSEN1-AD neurons = details: screen of existing drug library; earlier work of the authors; cited from earlier work
patients with MCI or PD [6] = assay: Safety and tolerability of single doses of clenbuterol; assay type: in vivo, human
patients with MCI or PD [7] = assay: Cerebral blood flow by pCASL MRI after clenbuterol; assay type: in vivo, human
[8] = test system: patients with AD and agitation/aggression; assay: Lit-AD randomized trial of low-dose lithium; assay type: in vivo, human
[9] = test system: subjects with moderate AD; assay: Masupirdine phase-2 trial, NPI-12 psychosis subgroup analysis; assay type: in vivo, human
[10] = test system: subjects with moderate AD; assay: Masupirdine phase-2 trial, NPI-12 agitation/aggression subgroup analysis; assay type: in vivo, human
[11] = test system: patients with PD psychosis and PD dementia; assay: HARMONY trial, post hoc PD dementia subgroup; assay type: in vivo, human
[12] = test system: patients with mild-to-moderate AD; assay: Open-label study of simufilam, interim analysis; assay type: in vivo, human
AD patients = details: cited from earlier work
GRN mutation carriers = details: repeat administration; earlier Phase 2 study; cited from earlier work
[13] = 80µg single dose, patients affected
[14] = first dose 80µg, 3 hours post-dose, n=8
[15] = second visit, 1mg nadolol 2.5 hours before clenbuterol, n=4
[16] = second visit, clenbuterol monotherapy, n=4

CN(C)c1ccc2c(c1)Sc1cc(N(C)C)ccc1N2.CS(=O)(=O)O.CS(=O)(=O)O [LMTM, leuco-methylthionine dihydromesylate]
decline on ADAS-cog11 over 12 months ([1]; above-threshold plasma levels): 1.58±0.46 units | decline on ADAS-cog11 over 12 months ([1]; below-threshold exposure): 4.74±0.60 units

CC(=O)Nc1nc(F)c(CN2CC[C@H](OCc3noc(C)n3)C[C@@H]2C)s1 [LY3372689]
food effect on AUC (3 mg QD, fed vs fasted): minimal effect | food effect, decrease of Cmax (3 mg QD, fed vs fasted): 43% | food effect, increase of tmax (3 mg QD, fed vs fasted): 5 h | exposure (AUC and Cmax) vs dose (SAD 0.15–16 mg and MAD 1, 3, 7 mg): generally dose-proportional | renal clearance (single or multiple dosing): not a major contributor | maximum tolerated dose (healthy volunteers [2]; SAD): not achieved | tolerability (healthy volunteers [2]; up to the highest dose in each study): generally well tolerated

NC(=O)c1ccc[n+]([C@@H]2O[C@H](CO)[C@@H](O)[C@H]2O)c1 [NR, Nicotinamide Riboside]
CK/ATPase activity and GSH levels (healthy volunteers [3]; N=4): Only a small difference | brain NAD+ and redox ratio (RR) (healthy volunteers [3]; N=4, preliminary): elevations

CN1CC[C@]2(C)c3cc(OC(=O)Nc4ccccc4)ccc3N(C)[C@H]12 [Posiphen]
Aβ42/40 ratio (AD and PD patients; AD patients): improved | axonal health as measured by NfL (AD and PD patients; AD patients): improved axonal health | sAPPα, sAPPβ, Tau, p-Tau (AD and PD patients; AD patients): reduced | ADAS-Cog 11 (AD and PD patients; AD patients, 80 mg QD for 25 +/− 2 days, vs baseline): statistically significant improvements | WAIS coding (AD and PD patients; AD patients, 80 mg QD, vs baseline): statistically significant improvements | UPDRS, all 4 parts (AD and PD patients; PD patients): strong trends | WAIS coding test (AD and PD patients; PD patients): statistically significant improvements | inflammation (AD and PD patients; treated patients, to baseline or to placebo): statistically significantly lowered

O=c1ccc2ccc(OCCCCN3CCN(c4cccc5sccc45)CC3)cc2[nH]1 [brexpiprazole]
patients with CGI-S score of 1 or 2 ([4]; 2 mg/day, week 12, 140/237): 59.1% | patients with improvement in CMAI of at least 10 points ([4]; 2 mg/day, week 12, 177/237): 74.7% | patients with improvement on CGI-S of at least 1 point ([4]; 2 mg/day, week 12, 188/237): 79.3% | difference vs placebo, CGI-S score of 1 or 2 ([4]; week 12, p = 0.0033): 13.5% | difference vs placebo, CMAI improvement of at least 10 points ([4]; week 12, p = 0.0550): 8.0% | difference vs placebo, CGI-S improvement of at least 1 point ([4]; week 12, p=0.0048): 11.4% | CMAI-IPA, adjusted mean difference vs placebo ([5]; Study 1, 2 mg/day (n=138) vs placebo (n=131), baseline to Week 12, MMRM): −2.34 | CMAI-IPA, adjusted mean difference vs placebo ([5]; Study 2, titrated to 2 mg/day (n=77) vs placebo (n=74), Week 12, MMRM): −2.79

CC(C)C[C@H]1C(=O)N2CCC[C@H]2[C@]2(O)O[C@](NC(=O)[C@@H]3C=C4c5cccc6[nH]c(Br)c(c56)C[C@H]4N(C)C3)(C(C)C)C(=O)N12 [bromocriptine]
modification of Aβ production (PSEN1-AD neurons): most potent modifier of Aβ production

CC(C)(C)NCC(O)c1cc(Cl)c(N)c(Cl)c1 (centres unmarked) [clenbuterol]
increase in heart rate, mean [SD] (patients with MCI or PD [6]; 80µg single dose): 12.9 [8.2] bpm | palpitations (patients with MCI or PD [6]; [13]): 1/8 | tremor (patients with MCI or PD [6]; [13]): 4/8 | safety and tolerability (patients with MCI or PD [6]; single doses of 80µg): safe and well tolerated | increase in CBF, amygdala (patients with MCI or PD [7]; [14]): 14.3% | increase in CBF, hippocampus (patients with MCI or PD [7]; [14]): 20.3% | increase in CBF, thalamus (patients with MCI or PD [7]; [14]): 13.1% | Mean Relative Difference in perfusion, hippocampus (patients with MCI or PD [7]; [15]): 13.7±5.9% | Mean Relative Difference in perfusion, thalamus (patients with MCI or PD [7]; [15]): 16.2±5.2% | Mean Relative Difference in perfusion, amygdala (patients with MCI or PD [7]; [16]): 8.1±11.5% | Mean Relative Difference in perfusion, hippocampus (patients with MCI or PD [7]; [16]): 18.6±15.1% | Mean Relative Difference in perfusion, thalamus (patients with MCI or PD [7]; [16]): 21.0±10.8%

O=C([O-])[O-].[Li+].[Li+] [lithium, lithium carbonate]
moderate or marked improvement (CGI) ([8]; 12 weeks): 36.8% | proportion of responders ([8]; 30% reduction in NPI agitation/aggression plus psychosis and CGI much or very much improved, 12 weeks): 31.6% | reduction vs placebo in patients with high Young Mania Rating Scale scores (β) ([8]; 95%CI 1.18 to 8.94): 5.06 | improvement on NPI delusions and irritability/lability ([8]; exploratory analyses): greater than placebo | change in NPI agitation/aggression ([8]; lithium carbonate 150–600 mg daily, 12 weeks, linear mixed effects model): not significantly superior to placebo | safety outcomes ([8]; vs placebo): did not differ significantly from placebo

COc1ccc2c(c1)c(CN1CCN(C)CC1)cn2S(=O)(=O)c1ccccc1Br [masupirdine]
NPI-12 psychosis score vs placebo ([9]; 50 mg, Week 4 & 13, p<0.05, MMRM): significant reduction | NPI-12 psychosis score vs placebo ([9]; 100 mg, Week 26, p<0.1): trend | effect size (Cohen’s d), agitation/aggression ([10]; 50 mg, end of 26 weeks): 0.66 | NPI-12 agitation/aggression scores ([10]; 50 & 100 mg arms, Week 13, MMRM): statistically significant (p<0.01) reduction

CC(C)(C)NCC(O)COc1cccc2c1CC(O)C(O)C2 (centres unmarked) [nadolol]
peripheral cardiovascular and metabolic effects of clenbuterol (patients with MCI or PD [6]; 1mg nadolol 2.5 hours before clenbuterol): mostly eliminated

CC(C)COc1ccc(CNC(=O)N(Cc2ccc(F)cc2)C2CCN(C)CC2)cc1 [pimavanserin]
sustained response at weeks 8 and 12 ([11]; 34 mg, open-label period, 36 of 49): 73.5% | patients who met relapse criteria ([11]; at the time the study was stopped, n=16): 1 | any TEAE ([11]; double-blind period): 31.3% | serious TEAEs ([11]; double-blind period): No patients | risk of psychosis relapse, hazard ratio vs placebo ([11]; double-blind period, Cox regression, 95% CI 0.016, 0.166): 0.052 | any TEAE ([11]; open-label period): 46.9% | decreased appetite ([11]; open-label period): 8.2% | fall ([11]; open-label period): 6.1% | insomnia ([11]; open-label period): 8.2% | serious TEAE ([11]; open-label period): 10.2% | somnolence ([11]; open-label period): 8.2% | urinary tract infection ([11]; open-label period): 6.1% | weight decreased ([11]; open-label period): 8.2% | MMSE mean change from baseline ([11]; open-label, baseline to week 12, SE 0.66): 0.3 | ESRS-A mean change from baseline ([11]; open-label, baseline to week 12, SE 0.74): −1.7 | complete response (SAPS-H+D score=0) ([11]; week 12, of 38 patients evaluated): 42.1%

CN1CCC2(CC1)NCC(=O)N2Cc1ccccc1 [simufilam]
ADAS-Cog11 mean change from baseline to Month 12 ([12]; 100 mg twice-daily oral, first 50 subjects, open-label): −3.23 ± 6.25 points | safety and tolerability ([12]; 12 months): safe and well-tolerated | subjects with no neuropsychiatric symptoms (NPI) ([12]; 12 months, baseline 34%): over 50% | ADAS-Cog11 score, mean ([12]; Month 12, Day 1 mean 16.73 ± 7.86): 13.51 ± 9.20 | subjects with improved ADAS-Cog11 scores ([12]; baseline to Month 12, 50 subjects): 68% | ADAS-Cog11 median change ([12]; baseline to Month 12, first 50 subjects): −4.0 points

Sola: monoclonal antibody comparator (Expedition 1–3)
ADAS-Cog effect size, slowing (AD patients; Expedition 1+2 mild individuals): 34.8% | ADCS-ADL effect size, slowing (AD patients; Expedition 3): 15.4% | CDR-SB effect size, slowing (AD patients; Expedition 3): 15.4%

B1: AL001: human monoclonal IgG1 antibody that blocks and downregulates Sortilin (antibody, chains of the INN, looked up, V domains shown)
VH: QVQLQESGPGLVKPSETLSLTCAVSGYSISSGYYWGWIRQPPGKGLEWIGTIYHSGSTYYNPSLKSRVTISVDTSKNQFSLKLSSVTAADTAVYYCARQGSIKQGYYGMDVWGQGTTVTVSS
VL: DIVMTQSPLSLPVTPGEPASISCRSSQSLLRSTGYNYLDWYLQKPGQSPQLLIYLGSNRASGVPDRFSGSGSGTDFTLKISRAEAEDVGVYYCMQQQEAPLTFGGGTKVEIK
CSF PGRN levels (GRN mutation carriers): normalize CSF PGRN levels
